From ChEMBL document CHEMBL3991601, “The target landscape of clinical kinase drugs” (Science, 2017)
The source made the active and inactive calls. Cut-off read from the data, not from the text of the source, for most assays here: actives have a measured Kd and inactives only a lower limit.

What was measured:
[1] = target: Glycogen synthase kinase-3 alpha (Homo sapiens, UniProt P49840)
[2] = target: Calcium/calmodulin-dependent protein kinase type II subunit delta (Homo sapiens, UniProt Q13557)
[3] = target: MAP/microtubule affinity-regulating kinase 3 (Homo sapiens, UniProt P27448)
dCTP pyrophosphatase 1 = target: T1, dCTP pyrophosphatase 1 (Homo sapiens, UniProt Q9H773)
T1 sequence (Q9H773 whole entry): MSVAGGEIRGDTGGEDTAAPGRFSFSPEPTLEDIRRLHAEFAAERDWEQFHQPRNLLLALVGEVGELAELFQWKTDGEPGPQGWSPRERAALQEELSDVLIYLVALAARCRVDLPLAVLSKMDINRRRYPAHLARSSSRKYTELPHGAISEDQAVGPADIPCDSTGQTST

[4] = target: T2, Beta-adrenergic receptor kinase 1 (Homo sapiens, UniProt P25098)
T2 sequence (P25098 whole entry): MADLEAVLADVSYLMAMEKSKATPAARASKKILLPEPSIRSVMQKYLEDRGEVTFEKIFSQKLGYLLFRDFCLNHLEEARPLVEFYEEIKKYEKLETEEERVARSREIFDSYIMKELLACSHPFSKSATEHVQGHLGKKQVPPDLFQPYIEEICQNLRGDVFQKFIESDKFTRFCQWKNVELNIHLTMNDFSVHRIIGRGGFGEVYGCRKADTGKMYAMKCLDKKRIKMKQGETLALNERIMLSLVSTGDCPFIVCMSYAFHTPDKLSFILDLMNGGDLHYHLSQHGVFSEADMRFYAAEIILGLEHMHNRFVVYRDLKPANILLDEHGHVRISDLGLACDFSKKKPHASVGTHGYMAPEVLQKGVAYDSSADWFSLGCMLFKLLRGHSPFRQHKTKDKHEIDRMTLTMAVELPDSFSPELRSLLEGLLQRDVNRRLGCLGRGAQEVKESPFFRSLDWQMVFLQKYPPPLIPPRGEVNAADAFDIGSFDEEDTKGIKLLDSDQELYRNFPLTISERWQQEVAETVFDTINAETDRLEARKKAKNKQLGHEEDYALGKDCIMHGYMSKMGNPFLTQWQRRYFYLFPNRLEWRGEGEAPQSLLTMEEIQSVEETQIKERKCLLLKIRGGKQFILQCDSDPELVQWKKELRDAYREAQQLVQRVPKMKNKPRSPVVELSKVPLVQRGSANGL

[5] = target: T3, Serine/threonine-protein kinase STK11 (Homo sapiens, UniProt Q15831)
T3 sequence (Q15831 whole entry): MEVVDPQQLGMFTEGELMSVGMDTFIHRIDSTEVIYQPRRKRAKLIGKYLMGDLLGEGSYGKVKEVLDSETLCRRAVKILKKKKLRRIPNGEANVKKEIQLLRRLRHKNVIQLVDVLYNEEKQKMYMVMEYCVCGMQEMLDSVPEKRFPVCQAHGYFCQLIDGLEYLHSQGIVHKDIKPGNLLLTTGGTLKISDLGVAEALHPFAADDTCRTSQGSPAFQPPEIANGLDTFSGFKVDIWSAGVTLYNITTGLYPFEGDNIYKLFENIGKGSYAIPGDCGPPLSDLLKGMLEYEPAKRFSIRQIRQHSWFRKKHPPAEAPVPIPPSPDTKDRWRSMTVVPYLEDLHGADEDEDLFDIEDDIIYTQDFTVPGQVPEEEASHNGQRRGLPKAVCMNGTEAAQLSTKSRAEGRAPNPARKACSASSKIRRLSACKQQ

[6] = target: T4, Serine/threonine-protein kinase NLK (Homo sapiens, UniProt Q9UBE8)
T4 sequence (Q9UBE8 whole entry): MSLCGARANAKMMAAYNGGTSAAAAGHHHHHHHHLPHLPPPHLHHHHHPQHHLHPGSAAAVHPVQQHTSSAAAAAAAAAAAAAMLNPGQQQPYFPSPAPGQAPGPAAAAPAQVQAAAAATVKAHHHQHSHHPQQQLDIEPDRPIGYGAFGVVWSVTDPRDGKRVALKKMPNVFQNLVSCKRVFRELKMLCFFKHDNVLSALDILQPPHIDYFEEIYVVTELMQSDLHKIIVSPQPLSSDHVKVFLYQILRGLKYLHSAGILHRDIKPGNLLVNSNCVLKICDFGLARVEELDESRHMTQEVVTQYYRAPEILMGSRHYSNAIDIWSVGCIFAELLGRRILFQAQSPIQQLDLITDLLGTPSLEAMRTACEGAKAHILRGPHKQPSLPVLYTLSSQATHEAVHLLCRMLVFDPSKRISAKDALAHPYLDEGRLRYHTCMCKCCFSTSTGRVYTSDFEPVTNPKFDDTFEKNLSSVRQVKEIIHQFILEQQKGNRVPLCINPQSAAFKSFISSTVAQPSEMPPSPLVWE

[7] = target: Dual specificity protein kinase CLK2 (Homo sapiens, UniProt P49760)
[8] = target: Cyclin-dependent kinase 2 (Homo sapiens, UniProt P24941)
[9] = target: T5, Tyrosine-protein kinase Tec (Homo sapiens, UniProt P42680)
T5 sequence (P42680 whole entry): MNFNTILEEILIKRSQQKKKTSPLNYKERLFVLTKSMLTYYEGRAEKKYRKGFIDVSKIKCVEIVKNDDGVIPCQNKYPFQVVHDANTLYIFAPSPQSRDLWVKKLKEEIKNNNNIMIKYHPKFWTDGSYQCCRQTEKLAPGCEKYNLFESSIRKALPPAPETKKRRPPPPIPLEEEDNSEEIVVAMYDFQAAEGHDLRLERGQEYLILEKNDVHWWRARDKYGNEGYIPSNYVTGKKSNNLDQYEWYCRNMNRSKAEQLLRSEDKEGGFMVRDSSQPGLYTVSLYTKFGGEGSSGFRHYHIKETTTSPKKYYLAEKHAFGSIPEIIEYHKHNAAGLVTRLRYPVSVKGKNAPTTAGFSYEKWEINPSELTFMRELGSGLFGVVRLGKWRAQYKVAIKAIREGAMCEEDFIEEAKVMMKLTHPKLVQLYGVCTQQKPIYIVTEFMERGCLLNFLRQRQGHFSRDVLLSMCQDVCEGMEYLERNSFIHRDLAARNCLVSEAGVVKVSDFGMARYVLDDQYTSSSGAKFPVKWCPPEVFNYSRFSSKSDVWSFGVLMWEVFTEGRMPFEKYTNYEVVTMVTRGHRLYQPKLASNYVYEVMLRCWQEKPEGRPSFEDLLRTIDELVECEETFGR
Note: in the data inactive means no Kd found up to 30 µM.

Chain of Dual specificity protein kinase CLK2 (P49760 whole entry): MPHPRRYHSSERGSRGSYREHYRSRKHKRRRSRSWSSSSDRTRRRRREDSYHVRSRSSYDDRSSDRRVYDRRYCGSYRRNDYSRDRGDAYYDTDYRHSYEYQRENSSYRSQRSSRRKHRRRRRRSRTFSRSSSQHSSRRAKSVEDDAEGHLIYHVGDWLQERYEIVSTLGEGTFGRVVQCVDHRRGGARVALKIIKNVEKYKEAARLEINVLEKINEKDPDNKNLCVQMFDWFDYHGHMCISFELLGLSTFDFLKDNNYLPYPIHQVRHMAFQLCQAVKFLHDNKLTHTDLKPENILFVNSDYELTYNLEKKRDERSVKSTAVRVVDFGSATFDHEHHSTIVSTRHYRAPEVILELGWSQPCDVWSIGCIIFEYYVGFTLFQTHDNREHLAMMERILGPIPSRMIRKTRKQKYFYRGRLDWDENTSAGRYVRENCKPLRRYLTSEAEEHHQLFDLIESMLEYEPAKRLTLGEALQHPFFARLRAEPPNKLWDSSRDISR
Chain of Calcium/calmodulin-dependent protein kinase type II subunit delta (Q13557 whole entry): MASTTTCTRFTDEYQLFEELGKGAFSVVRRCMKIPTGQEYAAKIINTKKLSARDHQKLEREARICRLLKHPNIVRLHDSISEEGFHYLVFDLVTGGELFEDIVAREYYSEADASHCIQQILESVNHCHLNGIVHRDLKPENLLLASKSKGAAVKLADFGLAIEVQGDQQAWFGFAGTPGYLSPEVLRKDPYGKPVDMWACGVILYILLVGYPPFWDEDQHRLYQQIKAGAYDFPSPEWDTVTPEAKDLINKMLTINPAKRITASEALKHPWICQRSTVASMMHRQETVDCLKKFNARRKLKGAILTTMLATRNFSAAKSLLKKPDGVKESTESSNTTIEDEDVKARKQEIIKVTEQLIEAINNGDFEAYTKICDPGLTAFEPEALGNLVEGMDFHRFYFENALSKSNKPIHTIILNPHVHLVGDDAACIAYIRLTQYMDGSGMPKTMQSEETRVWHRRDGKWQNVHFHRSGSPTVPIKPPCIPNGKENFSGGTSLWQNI
Chain of MAP/microtubule affinity-regulating kinase 3 (P27448 whole entry): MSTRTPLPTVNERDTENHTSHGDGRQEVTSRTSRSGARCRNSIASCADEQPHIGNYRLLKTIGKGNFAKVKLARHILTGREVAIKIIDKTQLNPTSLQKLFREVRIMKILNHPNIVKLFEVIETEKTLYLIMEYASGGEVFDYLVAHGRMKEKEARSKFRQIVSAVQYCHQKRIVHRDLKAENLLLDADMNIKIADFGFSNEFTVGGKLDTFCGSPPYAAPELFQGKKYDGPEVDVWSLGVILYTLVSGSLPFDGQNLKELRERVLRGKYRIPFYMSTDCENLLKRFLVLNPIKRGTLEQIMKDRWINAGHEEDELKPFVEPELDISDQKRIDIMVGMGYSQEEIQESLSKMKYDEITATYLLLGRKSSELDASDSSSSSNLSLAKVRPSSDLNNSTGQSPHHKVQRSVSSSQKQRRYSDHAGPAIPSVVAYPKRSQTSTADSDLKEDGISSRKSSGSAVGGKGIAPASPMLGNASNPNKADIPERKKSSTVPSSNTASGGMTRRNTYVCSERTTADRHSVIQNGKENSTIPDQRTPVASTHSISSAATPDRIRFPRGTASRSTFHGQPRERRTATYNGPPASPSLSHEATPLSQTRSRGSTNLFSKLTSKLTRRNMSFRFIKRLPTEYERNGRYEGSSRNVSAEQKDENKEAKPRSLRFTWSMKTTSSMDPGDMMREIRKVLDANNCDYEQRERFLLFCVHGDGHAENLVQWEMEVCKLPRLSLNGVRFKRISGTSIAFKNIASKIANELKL
Chain of Glycogen synthase kinase-3 alpha (P49840 whole entry): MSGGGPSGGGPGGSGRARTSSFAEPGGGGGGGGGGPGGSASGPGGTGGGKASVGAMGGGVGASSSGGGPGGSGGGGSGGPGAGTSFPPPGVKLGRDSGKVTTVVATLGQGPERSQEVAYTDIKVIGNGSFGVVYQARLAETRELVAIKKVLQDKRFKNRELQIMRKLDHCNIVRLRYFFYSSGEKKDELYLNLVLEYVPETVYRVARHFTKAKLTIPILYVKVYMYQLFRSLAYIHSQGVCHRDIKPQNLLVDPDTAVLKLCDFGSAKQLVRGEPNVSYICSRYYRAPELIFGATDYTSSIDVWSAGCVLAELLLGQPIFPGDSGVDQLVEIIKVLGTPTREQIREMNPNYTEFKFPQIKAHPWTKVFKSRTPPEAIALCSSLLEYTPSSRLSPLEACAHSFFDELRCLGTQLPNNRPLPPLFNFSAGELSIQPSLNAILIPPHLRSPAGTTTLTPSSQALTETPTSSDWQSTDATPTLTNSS

SMILES	Kd [1]	Kd [2]	Kd [3]	Kd (dCTP pyrophosphatase 1)	Kd [4]	Kd [5]	Kd [6]	Kd [7]	Kd [8]	Kd [9]
CC(=O)c1cnc2ccc(-c3cc(Cl)c(O)c(Cl)c3)nc2c1N[C@H]1CC[C@H](CN(C)C)CC1	0.087 µM (active)	> 30 µM (inactive)	> 30 µM (inactive)	> 30 µM (inactive)	> 30 µM (inactive)	> 30 µM (inactive)	0.024 µM (active)	> 30 µM (inactive)	0.091 µM (active)	> 30 µM (inactive)
C=CC(=O)N1CCC[C@H](n2c(=O)n(-c3ccc(Oc4ccccc4)cc3)c3c(N)ncnc32)C1	> 30 µM (inactive)	> 30 µM (inactive)	> 30 µM (inactive)	> 30 µM (inactive)	> 30 µM (inactive)	> 30 µM (inactive)	> 30 µM (inactive)	> 30 µM (inactive)	> 30 µM (inactive)	0.006 µM
Cc1nc2cc(-c3nn(C(C)C)c4ncnc(N)c34)ccc2o1	> 30 µM (inactive)	> 30 µM (inactive)	> 30 µM (inactive)	> 30 µM (inactive)	> 30 µM (inactive)	> 30 µM (inactive)	0.449 µM (active)	> 30 µM (inactive)	> 30 µM (inactive)	> 30 µM (inactive)
COCc1c(-c2ccc(NC(=O)Nc3cc(C(F)(F)F)ccc3F)c(F)c2)c2c(N)ncnn2c1CN1CCOCC1	> 30 µM (inactive)	> 30 µM (inactive)	> 30 µM (inactive)	> 30 µM (inactive)	> 30 µM (inactive)	> 30 µM (inactive)	> 30 µM (inactive)	> 30 µM (inactive)	> 30 µM (inactive)	> 30 µM (inactive)
Nc1ncnc2c1c(-c1cccc(OCc3ccccc3)c1)cn2[C@H]1C[C@@H](CN2CCC2)C1 [AEW-541]	> 30 µM (inactive)	> 30 µM (inactive)	> 30 µM (inactive)	> 30 µM (inactive)	> 30 µM (inactive)	> 30 µM (inactive)	> 30 µM (inactive)	> 30 µM (inactive)	> 30 µM (inactive)	> 30 µM (inactive)
Cc1nc(NC(=O)N2CCC[C@H]2C(N)=O)sc1-c1ccnc(C(C)(C)C(F)(F)F)c1 [ALPELISIB]	> 30 µM (inactive)	> 30 µM (inactive)	> 30 µM (inactive)	> 30 µM (inactive)	> 30 µM (inactive)	> 30 µM (inactive)		> 30 µM (inactive)	> 30 µM (inactive)	> 30 µM (inactive)
Cc1csc(-c2nnc(Nc3ccc(Oc4ncccc4-c4ccnc(N)n4)cc3)c3ccccc23)c1 [AMG-900]	> 30 µM (inactive)	> 30 µM (inactive)	> 30 µM (inactive)	> 30 µM (inactive)	> 30 µM (inactive)		> 30 µM (inactive)	3.22 µM (active)	> 30 µM (inactive)	> 30 µM (inactive)
C=CC(=O)Nc1cc2c(Nc3ccc(F)c(Cl)c3)ncnc2cc1C#CC(C)(C)N1CCN(C)CC1 [AV-412 FREE BASE]	> 30 µM (inactive)	> 30 µM (inactive)	> 30 µM (inactive)	> 30 µM (inactive)	> 30 µM (inactive)	> 30 µM (inactive)	> 30 µM (inactive)	> 30 µM (inactive)	> 30 µM (inactive)	0.422 µM (active)
Cc1cc(C(=O)NOCCO)c(Nc2ccc(I)cc2F)n(C)c1=O [AZD-8330]	> 30 µM (inactive)	> 30 µM (inactive)	> 30 µM (inactive)	> 30 µM (inactive)	> 30 µM (inactive)	> 30 µM (inactive)	> 30 µM (inactive)	> 30 µM (inactive)	> 30 µM (inactive)	> 30 µM (inactive)
Cn1cnc2c(F)c(Nc3ccc(Br)cc3F)c(C(=O)NOCCO)cc21 [BINIMETINIB]	> 30 µM (inactive)	> 30 µM (inactive)	> 30 µM (inactive)	> 30 µM (inactive)	> 30 µM (inactive)	> 30 µM (inactive)	> 30 µM (inactive)	> 30 µM (inactive)	> 30 µM (inactive)	> 30 µM (inactive)
CCn1c(C(=O)N(C2CC2)C2CC2)cc2c3c(ncn3C)c(Nc3cc(C)n(C)n3)nc21 [BMS-911543]	> 30 µM (inactive)	> 30 µM (inactive)	> 30 µM (inactive)	> 30 µM (inactive)	> 30 µM (inactive)	> 30 µM (inactive)	> 30 µM (inactive)	> 30 µM (inactive)	> 30 µM (inactive)	> 30 µM (inactive)
COc1cc2ncnc(Oc3cccc(NC(=O)Nc4cc(C(C)(C)C(F)(F)F)on4)c3)c2cc1OC [CEP-32496]	> 30 µM (inactive)	> 30 µM (inactive)	> 30 µM (inactive)	> 30 µM (inactive)	> 30 µM (inactive)	> 30 µM (inactive)	> 30 µM (inactive)	> 30 µM (inactive)	> 30 µM (inactive)	> 30 µM (inactive)
Cc1cc(Nc2ncc(Cl)c(Nc3ccccc3S(=O)(=O)C(C)C)n2)c(OC(C)C)cc1C1CCNCC1 [CERITINIB]	> 30 µM (inactive)	> 30 µM (inactive)	> 30 µM (inactive)	> 30 µM (inactive)	> 30 µM (inactive)	> 30 µM (inactive)	> 30 µM (inactive)	> 30 µM (inactive)	> 30 µM (inactive)	> 30 µM (inactive)
COc1c(OCCCN2CCOCC2)ccc2c1N=C(NC(=O)c1cnc(N)nc1)N1CCN=C21 [COPANLISIB]	> 30 µM (inactive)	> 30 µM (inactive)	> 30 µM (inactive)	> 30 µM (inactive)	> 30 µM (inactive)	> 30 µM (inactive)	> 30 µM (inactive)	> 30 µM (inactive)	> 30 µM (inactive)	> 30 µM (inactive)
